Earlier results as cited in patent US5266487A, “Apparatus for the treatment of lignocellulosic materials” (Knobbe, Martens, Olson & Bear, priority 1992, dated 1993).
Read-outs that look alike come from different tables or passages of the source.

Molecular target: alcohol oxidase (methanol oxidase), preferred enzyme from Hansenula polymorpha ATCC 34438 (Pichia angusta, UniProt P04841)
Sequence (P04841 whole entry): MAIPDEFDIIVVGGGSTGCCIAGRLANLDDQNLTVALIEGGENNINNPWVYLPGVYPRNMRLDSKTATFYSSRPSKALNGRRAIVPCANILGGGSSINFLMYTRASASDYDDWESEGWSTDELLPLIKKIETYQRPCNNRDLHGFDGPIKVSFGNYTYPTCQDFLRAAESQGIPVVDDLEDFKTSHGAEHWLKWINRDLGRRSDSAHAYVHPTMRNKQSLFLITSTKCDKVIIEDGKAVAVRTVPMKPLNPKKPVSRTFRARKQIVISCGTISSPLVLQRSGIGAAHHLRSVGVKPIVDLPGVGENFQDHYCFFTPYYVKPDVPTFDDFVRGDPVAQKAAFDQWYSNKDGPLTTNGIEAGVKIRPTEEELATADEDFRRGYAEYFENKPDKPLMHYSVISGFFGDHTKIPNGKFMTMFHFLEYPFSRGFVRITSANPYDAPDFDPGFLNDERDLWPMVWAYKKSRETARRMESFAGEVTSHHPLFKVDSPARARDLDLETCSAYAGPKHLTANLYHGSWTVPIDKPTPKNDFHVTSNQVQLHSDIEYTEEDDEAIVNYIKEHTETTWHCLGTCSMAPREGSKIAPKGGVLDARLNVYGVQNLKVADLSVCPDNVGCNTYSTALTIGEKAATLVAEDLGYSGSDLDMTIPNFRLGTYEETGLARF

| Km (read-out: Km oxygen, see Van Dijken et al., Arch. Microbiol. 111, 137 (1976)) [µM] | SMILES | Km (read-out: Km methanol, see Van Dijken et al., Arch. Microbiol. 111, 137 (1976)) [µM] |
| --- | --- | --- |
| – | CO [methanol] | 2000 |
| 400 | O=O [oxygen] | – |
